Structures can show the parent of a compound that is named as a salt.

Tested on in one assay: not given
Assay: not given
The following applies: lowering of blood pressure, hyperglycemic activity, inhibitory action on central nervous system; cited from earlier work.
With `Clc1cccc(Cl)c1N=C1CCCN1` [2-(2,6-dichloroophenylimino)pyrrolidine], the “pharmacodynamic activity in words” value is on record as “pharmacodynamically active”.

The test system of the next assay is castor-oil-induced diarrhea. Kind of assay: Castor oil-induced diarrhea in rats. Conditions: Rattus norvegicus, po, 4 h, read-out: Castor Oil ID50 (mg/kg)-4 hr.
`Cc1cc(N)ccc1NC1=NCCC1.Cl.Cl` [Example 9, 2-[(2-Methyl-4-aminophenyl)amino]-1-pyrroline, dihydrochloride]: the ED50 worked out at 0.97 mg/kg.

For the compound `Cc1cc(N)cc(C)c1NC1=NCCC1.Cl.Cl` [Example 11, 2-[(2,6-Dimethyl-4-aminophenyl)amino]-1-pyrroline, dihydrochloride], the ED50 was determined as 13.6 mg/kg.

Turning to `CC(=O)Nc1ccc(NC2=NCCC2)c(C)c1` [Example 16, 2-[(2-Methyl-4-acetamidopheny)amino]-1-pyrroline, hydrochloride], the ED50 was found to be 3.63 mg/kg.

Consider `CCC(=O)Nc1ccc(NC2=NCCC2)c(C)c1.Cl` [Example 18, 2-[(2-Methyl-4-(propanamido)phenyl)amino]-1-pyrroline, hydrochloride], for which the ED50 amounted to 0.97 mg/kg.

Take `CCOC(=O)Nc1ccc(NC2=NCCC2)c(C)c1.Cl` [Example 23, 2-[(2-Methyl-4-(ethoxycarbonylamino)phenyl)-amino]-1-pyrroline, hydrochloride]: the ED50 was determined as 1.81 mg/kg.

These data come from patent publication US4533739A, “2-[(Aminophenyl and amidophenyl)amino]-1-azacycloalkanes having antidiarrheal activity” (G. D. Searle & Co., priority 1982, dated 1985).
